Results: ChEMBL document CHEMBL6092167, “Phosphorylation as an Effective Tool to Improve Stability and Reduce Toxicity of Antimicrobial Peptides” (J Med Chem, 2024)
Calls of active or inactive are those of the source. The rule behind the calls is not given here. Non-standard residues stand in square brackets, D forms with d. Residues, ends and D or L forms follow the SMILES beside them. Bip = N[C@@H](Cc1ccc(-c2ccccc2)cc1)C(=O)O; pY = N[C@@H](Cc1ccc(OP(=O)(O)O)cc1)C(=O)O

Columns and labels:
Klebsiella pneumoniae [1] = assay: Antibacterial activity against Klebsiella pneumoniae ATCC 700603 infected in BALB/c mouse lung infection model assessed as removal of bacterial load at 5.31 mg/kg, ip administered twice daily for 3 days and measured after 6 days; format: functional; settings: time 9 day
[2] = Toxicity in ip dosed BALB/c mouse assessed as effect on lung at LD50 dose by H and E staining based assay; format: organism-based; settings: in vivo
Escherichia coli [3] = assay: Antibacterial activity against Escherichia coli ATCC 25922 in presence of KCl; format: functional, organism-based
Klebsiella pneumoniae [4] = assay: Antibacterial activity against Klebsiella pneumoniae ATCC 700603 infected in BALB/c mouse lung infection model assessed as improved alveolar aggregation at 5.31 mg/kg, ip administered twice daily for 3 days and measured after 7 days; format: functional, organism-based; settings: time 10.0 day
Staphylococcus aureus [5] = assay: Antibacterial activity against Staphylococcus aureus ATCC 25923 in presence of MgCl2; format: functional, organism-based
[6] = Toxicity in BALB/c mouse assessed as mortality at 220 to 350 mg/kg, ip measured after 14 days; format: organism-based; settings: in vivo, 336 h, dose 220-350 mg/kg, time 14 day
Klebsiella pneumoniae [7] = assay: Antibacterial activity against Klebsiella pneumoniae ATCC 700603 infected in BALB/c mouse lung infection model assessed as alveolar dilation at 5.31 mg/kg, ip administered twice daily for 3 days and measured after 7 days; format: functional, organism-based; settings: time 10.0 day
Klebsiella pneumoniae [8] = assay: Antibacterial activity against Klebsiella pneumoniae ATCC 700603 infected in BALB/c mouse lung infection model assessed as increase in mouse survival at 5.31 mg/kg, ip administered twice daily for 3 days and measured for 7 days; format: functional, organism-based; settings: time 10.0 day
Staphylococcus aureus [9] = assay: Antibacterial activity against Staphylococcus aureus ATCC 25923 infected in BALB/c mouse systemic infection model assessed as reduction in bacterial load in lung at 21.21 mg/kg, ip pre-infected for 2 hrs followed by compound addition and measured after 8 hrs postinfection; format: functional, organism-based; settings: time 6.0 hrs
Staphylococcus aureus [10] = assay: Antibacterial activity against Staphylococcus aureus ATCC 25923 in presence of FeCl3; format: functional, organism-based
Escherichia coli [11] = assay: Antibacterial activity against Escherichia coli ATCC 25922 in presence of FeCl3; format: functional, organism-based
Staphylococcus aureus [12] = assay: Antibacterial activity against Staphylococcus aureus ATCC 25923 assessed as fold increase in MIC in presence of Na+; format: functional
Staphylococcus aureus [13] = assay: Antibacterial activity against Staphylococcus aureus ATCC 25923 infected in BALB/c mouse systemic infection model assessed as reduction in inflammatory response in lung tissue at 21.21 mg/kg, ip pre-infected for 2 hrs followed by compound addition and measured after 8 hrs postinfection; format: functional, organism-based; settings: time 6.0 hrs
Staphylococcus aureus [14] = assay: Antibacterial activity against Staphylococcus aureus ATCC 25923 preincubated with serum for 6 hrs followed by 15 mins inactivation prior to bacteria addition and measured after 18 to 24 hrs; format: functional, organism-based; settings: time 18-24 hrs
[15] = Toxicity in ip dosed BALB/c mouse assessed as kidney bleeding at LD50 dose by H and E staining based assay; format: organism-based; settings: in vivo
Klebsiella pneumoniae [16] = assay: Bactericidal activity against Klebsiella pneumoniae ATCC 700603 at 2 times MIC within 60 mins by time kill assay; format: functional, organism-based
Escherichia coli [17] = assay: Antibacterial activity against Escherichia coli ATCC 25922 in presence of […]; format: functional, organism-based
[18] = Toxicity in ip dosed BALB/c mouse assessed as hemorrhage in lung at LD50 dose by H and E staining based assay; format: organism-based; settings: in vivo
Klebsiella pneumoniae [19] = assay: Antibacterial activity against Klebsiella pneumoniae ATCC 700603 infected in BALB/c mouse lung infection model assessed as alveolar dilation at 5 mg/kg, ip administered twice daily for 3 days and measured after 7 days; format: functional, organism-based; settings: time 10.0 day
Staphylococcus aureus [20] = assay: Antibacterial activity against Staphylococcus aureus ATCC 25923 infected in BALB/c mouse systemic infection model assessed as reduction in bacterial load in kidney at 20 mg/kg, ip pre-infected for 2 hrs followed by compound addition and measured after 8 hrs postinfection; format: functional, organism-based; settings: time 6.0 hrs
[21] = Toxicity in ip dosed BALB/c mouse assessed as inflammatory cell infiltration in lung at LD50 dose by H and E staining based assay; format: organism-based; settings: in vivo
Staphylococcus aureus [22] = assay: Antibacterial activity against Staphylococcus aureus ATCC 25923 infected in BALB/c mouse systemic infection model assessed as reduction in bacterial load in liver at 20 mg/kg, ip pre-infected for 2 hrs followed by compound addition and measured after 8 hrs postinfection; format: functional, organism-based; settings: time 6.0 hrs
Klebsiella pneumoniae [23] = assay: Bactericidal activity against Klebsiella pneumoniae ATCC 700603 at 2 times MIC measured upto 1440 mins by time kill assay; format: functional, organism-based
Escherichia coli [24] = assay: Antibacterial activity against Escherichia coli ATCC 25922 assessed as fold increase in MIC preincubated with serum for 6 hrs followed by 15 mins inactivation prior to bacteria addition and measured after 18 to 24 hrs; format: functional; settings: time 18-24 hrs
Klebsiella pneumoniae [25] = assay: Antibacterial activity against Klebsiella pneumoniae ATCC 700603 infected in BALB/c mouse lung infection model assessed as increase in mouse survival at 5 mg/kg, ip administered twice daily for 3 days and measured for 7 days; format: functional, organism-based; settings: time 10.0 day
Staphylococcus aureus [26] = assay: Antibacterial activity against Staphylococcus aureus ATCC 25923 infected in BALB/c mouse systemic infection model assessed as reduction in bacterial load in spleen at 20 mg/kg, ip pre-infected for 2 hrs followed by compound addition and measured after 8 hrs postinfection; format: functional, organism-based; settings: time 6.0 hrs

CC(C)C[C@H](NC(=O)[C@H](CC(C)C)NC(=O)[C@H](Cc1ccc(OP(=O)(O)O)cc1)NC(=O)[C@H](CCCCN)NC(=O)[C@H](CC(C)C)NC(=O)[C@H](CCCNC(=N)N)NC(=O)[C@H](CCCCN)NC(=O)[C@H](Cc1ccc(-c2ccccc2)cc1)NC(=O)[C@H](CC(C)C)NC(=O)CN)C(N)=O (H-GL[Bip]KRLK[pY]LL-NH2)
Activity (Klebsiella pneumoniae [1]): 100% | Activity [2]: Toxic | Activity (Escherichia coli [3]): Active; Compound Showed Excellent Tolerance Towards Salt Environment | Activity (Klebsiella pneumoniae [4]): Active | Activity (Staphylococcus aureus [5]): Active; Compound Showed Excellent Tolerance Towards Salt Environment | Activity [6]: Toxic | Activity (Klebsiella pneumoniae [7]): Active | Activity (Klebsiella pneumoniae [8]): Active; Comparable Activity To Polymyxin B | Activity (Staphylococcus aureus [9]): Active | Activity (Staphylococcus aureus [10]): Active; Compound Showed Excellent Tolerance Towards Salt Environment | Activity (Escherichia coli [11]): Active; Compound Showed Excellent Tolerance Towards Salt Environment | Activity (Staphylococcus aureus [12]): Active; Compound Showed Excellent Tolerance Towards Salt Environment | Activity (Staphylococcus aureus [13]): Active | Activity (Staphylococcus aureus [14]): Active; Antibacterial Activity Remained Unaffected | Activity [15]: Toxic | Activity (Klebsiella pneumoniae [16]): Active | Activity (Escherichia coli [17]): Active; Compound Showed Excellent Tolerance Towards Salt Environment

CC(C)C[C@H](NC(=O)[C@H](CC(C)C)NC(=O)[C@H](Cc1ccc(O)cc1)NC(=O)[C@H](CCCCN)NC(=O)[C@H](CC(C)C)NC(=O)[C@H](CCCNC(=N)N)NC(=O)[C@H](CCCCN)NC(=O)[C@H](Cc1ccc(-c2ccccc2)cc1)NC(=O)[C@H](CC(C)C)NC(=O)CN)C(N)=O (H-GL[Bip]KRLKYLL-NH2)
Activity [18]: Toxic | Activity (Klebsiella pneumoniae [19]): Active | Activity (Staphylococcus aureus [20]): Active | Activity [21]: Toxic | Activity (Staphylococcus aureus [22]): Active | Activity (Klebsiella pneumoniae [23]): Active | fold change (FC) (Escherichia coli [24]): 2 | Activity (Klebsiella pneumoniae [25]): Active; Comparable Activity To Polymyxin B | Activity (Staphylococcus aureus [26]): Active
